Laboratory results taken from patent publication US9862748B2, “Peptide compounds and methods of production and use thereof” (priority 2012, dated 2018).
Like-named read-outs stand apart in the source and are kept apart here. Square brackets hold non-standard residues; d marks the D form. Peptide text beside a SMILES is read from it. AEEA = NCCOCCOCC(=O)O

Legend:
[1] = test system: P. aeruginosa (ATCC® 27853™); test: Mouse model of Pseudomonas keratitis (CFU/eye); format: in vivo, Pseudomonas aeruginosa in C57/BL mice; settings: 10 and 20 mg/ml groups together
Experimental: A circular wound (2 mm) was created on the mouse cornea by removing the epithelium and infecting the wound with 10^5 CFU of P. aeruginosa (ATCC® 27853™ (American Type Culture Collection, Manassas, Va.)). Infected wounds were treated with saline or saline containing indicated concentrations of peptide every 15 minutes for 2 hours, then every 30 minutes for 3 hours on the first day. Infected wounds were treated twice on the second day and once on the third day. Mice were killed at 48 hours post-infection, and the colony forming units per eye (CFU/eye) were quantified. The means are plotted and are representative of 5 to 9 mice per group. Mann Whitney test was performed for each group as compared to the saline control group.
For FIGS. 15-17, in vivo bactericidal activity of the peptides was also investigated using the standard Pseudomonas keratitis model in the mouse eye (FIGS. 15-17). Peptides 120-146QR-5RMP (SEQ ID NO: 32), 120-146WH (SEQ ID NO: 31), and 120-146WR (SEQ ID NO: 30) were applied topically at doses of 2, 5, 10, and 20 mg/ml to the wounded cornea that had been infected with 10^5 CFU of Pseudomonas aeruginosa. The efficacies of the peptides were compared to treatment with the vehicle control. Mice were euthanized at 48 hours post infection, and the CFU/eye were quantified.

[2] = test system: Pseudomonas aeruginosa ATCC® 27853™; format: cell-based; set-up: Effects of Peptide Compounds on Pseudomonas aeruginosa ATCC ® 27853 ™: unit not given here; settings: Table 6
Experimental: (§1) In vitro bactericidal activity: The three peptide compounds BCC01-5RMP (SEQ ID NO: 21), BCC02-5RMP (SEQ ID NO: 22), and BCC03-5RMP (SEQ ID NO: 23) were assayed for in vitro bactericidal activity against Pseudomonas aeruginosa, Escherichia coli, Salmonella typhimurium, and Acinetobacter baumannii. The starting inoculum for all experiments was 1×10^6 colony forming units (CFU)/ml. The CFU remaining at the end of 60 to 180 minute incubation was determined, and the data plotted as a log reduction in CFU/ml.
(§2) For FIGS. 10-13, in vitro bactericidal assays were performed using a starting inoculum of 1×10^6 CFU/ml of the bacterial suspension. The CFU remaining at the end of the 60-180 minute incubation was determined, and the data was plotted as log reduction in CFU/ml.
(§3) In particular, each of the test peptides (CAP37 peptides 120-146WR, 120-146WH, and 95-122 (SEQ ID NOs: 30, 31, and 26, respectively)) was used at 25, 12.5, 6.25, and 3.12 μM. Gentamicin was used at 4 μg/ml. 1×10^6/ml Acinetobacter baumannii ATCC® BAA-747™ or Pseudomonas aeruginosa ATCC® 27853™ (American Type Culture Collection, Manassas, Va.) were incubated with the peptides, negative buffer control (tryptone saline), and positive control gentamicin at pH 5.5 or 7.2. A 60 minute incubation was used for Acinetobacter baumannii ATCC® BAA-747™, while a 180 minute incubation was used for Pseudomonas aeruginosa ATCC® 27853™. 50 μl aliquots were plated out on agar plates and incubated overnight. Colony forming units were counted after overnight incubation and CFU/ml calculated.
For FIG. 14, 1×10^6/ml Pseudomonas aeruginosa ATCC® 27853™ were incubated with each of the test peptides (CAP37 peptides 120-146WR, 120-146WH, 120-146QR, 120-146QH, 120-146QR-5RMP, and 120-146QH-5RMP (SEQ ID NOs: 30, 31, 28, 29, 32, and 33, respectively)) at 150, 75, and 37.5 μg/ml, or negative buffer control (tryptone saline), for 180 minutes at pH 5.5. 50 μl aliquots were plated out on agar plates and incubated overnight. Colony forming units were counted after overnight incubation and CFU/ml calculated.

Pseudomonas LPS = test: LPS binding, Limulus Amebocyte Lysate (LAL) assay
Experimental: (§4) The well-characterized response of RAW264.7 macrophage cells was used to produce tumor necrosis-factor-alpha (TNF-α) in response to LPS to determine whether the peptides could dampen the release of this cytokine. […] Importantly, pre-treatment (3 hours prior to LPS addition) as well as post-treatment of the RAW264.7 cells (3 hours post LPS addition) with peptide dampened the cytokine release. […] The finding that the novel peptides bind and neutralize the effect of Pseudomonas LPS is of critical importance since this ensures that the novel therapeutic peptide compounds described herein will not only kill the bacteria, but will also neutralize the LPS endotoxin released by the bacteria which plays such an important role in the rapid progression of sepsis.
(§5) BCC01-5RMP (SEQ ID NO: 21), BCC02-5RMP (SEQ ID NO: 22), and BCC03-5RMP (SEQ ID NO: 23) were tested for their ability to bind lipopolysaccharide (LPS) using the limulus amebocyte lysate method (LAL). […] There was no statistical difference in their ability to bind LPS using the LAL technique. The ability of the peptides to neutralize LPS was assessed by determining their ability to attenuate the release of tumor necrosis factor-alpha (TNF-α) from LPS-stimulated RAW264.7 cells (a mouse macrophage cell line). […] No significant differences were observed between the three peptides to neutralize LPS as measured by cytokine release.

[3] = test system: Acinetobacter baumannii ATCC® BAA-747™; format: cell-based; settings: starting inoculum 1×10^6 CFU/ml; 60 to 180 minute incubation
Experimental: as §1, §2, §3

Salmonella typhimurium = test: In vitro bactericidal assay; format: cell-based
Experimental: as §1

[4] = test system: E. coli ATCC® strain 25922™; format: cell-based, Escherichia coli; set-up: unit not given here; settings: Peptide Conc 1.56 μg/ml; Table 6
Experimental: as §1

RAW264.7 cells = test: LPS neutralization: TNF-α release from LPS-stimulated RAW264.7 cells; format: cell-based, mouse
Experimental: as §4, §5

Row | SMILES | mice with no viable bacteria in the eye after treatment [1] | Effects of Peptide Compounds on Pseudomonas aeruginosa ATCC ® 27853 ™ ([2]; Peptide Conc 25 μg/ml) | Effects of Peptide Compounds on Pseudomonas aeruginosa ATCC ® 27853 ™ ([2]; Peptide Conc 50 μg/ml) | Effects of Peptide Compounds on Pseudomonas aeruginosa ATCC ® 27853 ™ ([2]; Peptide Conc 100 μg/ml) | Effects of Peptide Compounds on Pseudomonas aeruginosa ATCC ® 27853 ™ ([2]; Peptide Conc 200 μg/ml) | binding of Pseudomonas LPS (LAL) (Pseudomonas LPS) | activity against Acinetobacter baumannii [3] | activity against Salmonella typhimurium (Salmonella typhimurium) | Effects of Peptide Compounds on Escherichia coli ATCC ® 25922 ™ [4] | release of TNF-α in response to Pseudomonas LPS (RAW264.7 cells)
1 | CC(C)C[C@H](NC(=O)[C@H](CCCNC(=N)N)NC(=O)CNC(=O)CNC(=O)[C@H](CO)NC(=O)[C@H](CCCNC(=N)N)NC(=O)[C@H](CCC(N)=O)NC(=O)[C@H](CO)NC(=O)CNC(=O)[C@H](Cc1c[nH]c2ccccc12)NC(=O)CNC(=O)[C@H](C)NC(=O)[C@@H](NC(=O)[C@H](CCC(N)=O)NC(=O)[C@H](CS)NC(=O)[C@H](CCCNC(=N)N)NC(=O)[C@@H](NC(=O)CNC(=O)[C@H](CCCNC(=N)N)NC(=O)[C@H](CCCNC(=N)N)NC(=O)[C@H](CCCNC(=N)N)NC(=O)[C@H](CCCNC(=N)N)NC(=O)COCCOCCNC(=O)COCCOCCN)[C@@H](C)O)C(C)C)C(=O)N[C@@H](CO)C(=O)N[C@@H](CCCNC(=N)N)C(=O)N[C@@H](Cc1ccccc1)C(=O)N1CCC[C@H]1C(=O)N[C@@H](CCCNC(=N)N)C(=O)N[C@@H](Cc1ccccc1)C(=O)N[C@H](C(=O)N[C@@H](CC(N)=O)C(=O)N[C@H](C(=O)N[C@@H](CCCNC(=N)N)C(=O)O)C(C)C)C(C)C [120-146QR-5RMP] (H-[AEEA][AEEA]RRRRGTRCQVAGWGSQRSGGRLSRFPRFVNVR-OH; N-terminus and C-terminus assumed) | Six of the 10 mice |  |  |  |  |  |  |  |  | 
2 | CC[C@H](C)[C@H](NC(=O)[C@H](CC(C)C)NC(=O)[C@H](C)NC(=O)CNC(=O)CNC(=O)[C@H](CS)NC(=O)[C@H](Cc1ccccc1)NC(=O)[C@H](Cc1c[nH]cn1)NC(=O)[C@H](CCCNC(=N)N)NC(=O)CNC(=O)[C@H](CCC(N)=O)NC(=O)[C@H](CC(N)=O)NC(=O)[C@H](CCCNC(=N)N)NC(=O)[C@H](CCCNC(=N)N)NC(=O)[C@H](CCCNC(=N)N)NC(=O)[C@H](CCCNC(=N)N)NC(=O)COCCOCCNC(=O)COCCOCCN)C(=O)N[C@@H](Cc1c[nH]cn1)C(=O)N[C@@H](C)C(=O)N[C@@H](CCCNC(=N)N)C(=O)N[C@@H](Cc1ccccc1)C(=O)N[C@H](C(=O)N[C@@H](CCSC)C(=O)N[C@H](C(=O)N[C@@H](C)C(=O)N[C@@H](C)C(=O)N[C@@H](CO)C(=O)N[C@@H](CO)C(=O)N[C@@H](Cc1ccccc1)C(=O)N[C@@H](CCC(N)=O)C(=O)N[C@@H](CCCNC(=N)N)C(=O)O)[C@@H](C)O)C(C)C [BCC03-5RMP] (H-[AEEA][AEEA]RRRRNQGRHFCGGALIHARFVMTAASSFQR-OH; N-terminus assumed) |  | 100.0 | 100.0 | 100.0 | 100.0 | bound Pseudomonas LPS | most active | strong, but lesser activity | 23.0 | attenuate the release of TNF-α
